Assay results published in patent US9247759B2, “Identification of human T2R receptors that respond to bitter compounds that elicit the bitter taste in compositions, and the use thereof in assays to identify compounds that inhibit (block) bitter taste in compositions and use thereof” (SENOMYX, INC., priority 2007, dated 2016).
pIC50: −log10 of the molar value. Like-named read-outs stand apart in the source and are kept apart here.

Legend:
[1] = target: hT2R64 (Homo sapiens (Human), UniProt P59538); assay: hT2R panel inhibition, transient HEK293 G16g44, agonist Aristolochic Acid 1 μM; type: cell-based; settings: HEK293, compound at 25 μM
Method in brief: (§1)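 Receptor activity was measured in functional assays after single-receptor transient transfection; bitter agonists were used at their EC80 levels. A decrease in that activity when the test compound was added was taken as inhibition.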

[2] = target: hT2R61 (Homo sapiens (Human), UniProt P59537); assay: hT2R panel inhibition, transient HEK293 G16g44, agonist Aristolochic Acid 25 nM; type: cell-based; settings: HEK293, compound at 25 μM
Method in brief: as §1

[3] = target: hT2R75 (Homo sapiens (Human), UniProt P59540); assay: hT2R panel inhibition, transient HEK293 G16g44, agonist Strychnine 1 μM; type: cell-based
Procedure: (§2) Specifically, in order to evaluate the inhibitory selectivity of the Compound C compound, this compound was tested against 22 human T2Rs which were deorphaned by Senomyx. These receptors and the bitter ligands that activate these human T2Rs are reported in earlier patent applications which are incorporated by reference herein. These 22 human T2Rs are hT2R1, 3, 4, 5, 7, 8, 9, 10, 13, 14, 16, 44, 51, 54, 55, 61, 63, 64, 65, 67, 71 and 75. The amino acid and nucleic acid sequences of all of these T2Rs may be found in these earlier patent applications. These human T2Rs were each individually transiently transfected into HEK293 cells that stably express the promiscuous G protein G16g44 and functional assays were effected using these receptors as disclosed in these same patent applications. […] The ligands were used at EC80 concentration levels. The list of bitter ligands utilized and the tested ligand concentrations are contained in Table 5 of this example.
(§3) Relating to the foregoing, FIG. 5 contains experimental results wherein Compound C was tested with different agonist compounds. The inhibition activity is represented by the reduction of receptor activity in the presence of Compound C. […] These 13 hT2Rs are hT2R3, 7, 10, 14, 16, 44, 51, 55, 61, 63, 64, 65, and 71.

[4] = tested on: hT2R63; assay: hT2R panel inhibition, transient HEK293 G16g44, agonist Caffeine 1 mM or Andrographolide 100 μM; type: cell-based, human; settings: compound at 25 μM; for screening result against bitter receptor 63: receptor activated to EC80 with the corresponding agonist
Method in brief: as §1

[5] = target: T1, hT2R14 (Homo sapiens (Human), UniProt Q9NYV8); assay: hT2R14 antagonist high-throughput FLIPR assay, stable cell line with G16g44, agonist aristolochic acid; type: cell-based; settings: read-out: IC50 on hT2R14 bitter receptor
Method in brief: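 HEK293 cells stably expressing hT2R14 with chimeric G16g44 were stimulated with aristolochic acid (3 μM), giving 70-80% of maximal receptor activity. Test compounds were added together with the agonist, and antagonism was read as fluorescent calcium signal on FLIPR.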

[6] = target: hT2R16 (Homo sapiens (Human), UniProt Q9NYV7); assay: hT2R panel inhibition, transient HEK293 G16g44, agonist Salicin 1 mM; type: cell-based; settings: HEK293, compound at 25 μM
Method in brief: as §1

[7] = target: T1, hT2R14; assay: hT2R panel inhibition, transient HEK293 G16g44, agonist Aristolochic Acid 2 μM; type: cell-based; settings: HEK293, compound at 25 μM
Method in brief: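 Each hT2R was transiently transfected into HEK293 cells stably expressing G16g44 and assayed functionally for inhibition of agonist response. Agonists were applied at EC80: andrographolide at 0.5 mM for hT2R8 and aristolochic acid at 2 μM for hT2R14.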

[8] = target: hT2R71 (Homo sapiens (Human), UniProt P59536); assay: hT2R panel inhibition, transient HEK293 G16g44, agonist Picric Acid 10 μM; type: cell-based; settings: HEK293, compound at 25 μM
Method in brief: as §1

[9] = target: hT2R3 (Homo sapiens (Human), UniProt Q9NYW6); assay: hT2R panel inhibition, transient HEK293 G16g44, agonist Chloroquine pH6.5 50 μM; type: cell-based; settings: HEK293, compound at 25 μM
Method in brief: as §1

[10] = tested on: hT2R44; assay: hT2R panel inhibition, transient HEK293 G16g44, agonist Denatonium 0.5 μM; type: cell-based, human; settings: compound at 25 μM; for screening result against bitter receptor 44: receptor activated to EC80 with the corresponding agonist
Method in brief: as §1

[11] = tested on: hT2R65; assay: hT2R panel inhibition, transient HEK293 G16g44, agonist Oleuropein 1 mM; type: cell-based, human; settings: compound at 25 μM; for screening result against bitter receptor 65: receptor activated to EC80 with the corresponding agonist
Procedure: as §2, §3

[12] = target: hT2R51 (Homo sapiens (Human), UniProt P59533); assay: hT2R panel inhibition, transient HEK293 G16g44, agonist Prop 2.5 μM; type: cell-based; settings: HEK293, compound at 25 μM; receptor activated to EC80 with the corresponding agonist; read-out: screening result against bitter receptor 51
Procedure: as §2, §3

[13] = tested on: hT2R67; assay: hT2R panel inhibition, transient HEK293 G16g44, agonist Andrographolide 5 μM; type: cell-based, human; settings: compound at 25 μM; receptor activated to EC80 with the corresponding agonist
Procedure: as §2, §3

[14] = target: hT2R10 (Homo sapiens (Human), UniProt Q9NYW0); assay: hT2R panel inhibition, transient HEK293 G16g44, agonist Strychnine 50 μM; type: cell-based
[15] = tested on: hT2R54; assay: hT2R panel inhibition, transient HEK293 G16g44, agonist Ranitidine 5 mM; type: cell-based, human; settings: compound at 25 μM; receptor activated to EC80 with the corresponding agonist
Procedure: as §2, §3

[16] = target: hT2R5 (Homo sapiens (Human), UniProt Q9NYW4); assay: hT2R panel inhibition, transient HEK293 G16g44, agonist Picoline 10 mM; type: cell-based; settings: HEK293, compound at 25 μM; receptor activated to EC80 with the corresponding agonist; read-out: screening result against bitter receptor 5
Method in brief: as §1

[17] = target: hT2R7 (Homo sapiens (Human), UniProt Q9NYW3); assay: hT2R panel inhibition, transient HEK293 G16g44, agonist Chloroquine pH6.5 10 mM; type: cell-based; settings: HEK293, compound at 25 μM; receptor activated to EC80 with the corresponding agonist; read-out: screening result against bitter receptor 7
Method in brief: as §1

[18] = tested on: hT2R55; assay: hT2R panel inhibition, transient HEK293 G16g44, agonist Cinchonine 150 μM; type: cell-based, human; settings: compound at 25 μM; for screening result against bitter receptor 55: receptor activated to EC80 with the corresponding agonist
Method in brief: as §1

[19] = receptor activated to EC80 with the corresponding agonist, read-out: screening result against bitter receptor 64
[20] = receptor activated to EC80 with the corresponding agonist, read-out: screening result against bitter receptor 61
[21] = HEK293, read-out: screening result against bitter receptor 75, compound at 25 μM, receptor activated to EC80 with the corresponding agonist
[22] = receptor activated to EC80 with the corresponding agonist, read-out: screening result against bitter receptor 16
[23] = receptor activated to EC80 with the corresponding agonist, read-out: screening result against bitter receptor 14
[24] = receptor activated to EC80 with the corresponding agonist, read-out: screening result against bitter receptor 71
[25] = receptor activated to EC80 with the corresponding agonist, read-out: screening result against bitter receptor 3
[26] = HEK293, read-out: screening result against bitter receptor 10, compound at 25 μM, receptor activated to EC80 with the corresponding agonist
[27] = receptor activated to EC80 with agonist

hT2R16, sequence (Q9NYV7 whole entry): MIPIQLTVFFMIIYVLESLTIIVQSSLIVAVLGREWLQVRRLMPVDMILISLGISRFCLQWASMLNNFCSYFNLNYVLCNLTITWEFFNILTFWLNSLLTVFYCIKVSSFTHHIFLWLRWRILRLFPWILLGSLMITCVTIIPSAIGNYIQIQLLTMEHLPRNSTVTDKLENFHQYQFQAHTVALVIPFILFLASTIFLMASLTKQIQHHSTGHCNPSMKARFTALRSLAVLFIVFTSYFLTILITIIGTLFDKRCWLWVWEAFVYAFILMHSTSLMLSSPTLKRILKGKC
hT2R75, sequence (P59540 whole entry): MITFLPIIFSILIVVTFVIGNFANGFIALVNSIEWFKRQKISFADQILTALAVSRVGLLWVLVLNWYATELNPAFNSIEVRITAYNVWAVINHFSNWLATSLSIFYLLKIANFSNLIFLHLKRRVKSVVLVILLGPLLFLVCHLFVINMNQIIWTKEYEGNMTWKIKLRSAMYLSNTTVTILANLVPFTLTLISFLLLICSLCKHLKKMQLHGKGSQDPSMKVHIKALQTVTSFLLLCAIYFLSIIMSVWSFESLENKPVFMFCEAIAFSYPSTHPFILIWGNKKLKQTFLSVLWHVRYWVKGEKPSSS
hT2R61, sequence (P59537 whole entry): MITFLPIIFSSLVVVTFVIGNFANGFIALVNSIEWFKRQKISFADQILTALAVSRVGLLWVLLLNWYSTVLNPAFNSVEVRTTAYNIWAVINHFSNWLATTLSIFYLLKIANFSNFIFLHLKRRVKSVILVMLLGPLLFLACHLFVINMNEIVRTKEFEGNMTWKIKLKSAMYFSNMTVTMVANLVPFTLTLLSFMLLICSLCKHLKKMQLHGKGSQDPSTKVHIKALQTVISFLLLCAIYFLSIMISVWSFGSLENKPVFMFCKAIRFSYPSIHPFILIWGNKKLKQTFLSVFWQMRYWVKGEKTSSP
T1 sequence (Q9NYV8 whole entry): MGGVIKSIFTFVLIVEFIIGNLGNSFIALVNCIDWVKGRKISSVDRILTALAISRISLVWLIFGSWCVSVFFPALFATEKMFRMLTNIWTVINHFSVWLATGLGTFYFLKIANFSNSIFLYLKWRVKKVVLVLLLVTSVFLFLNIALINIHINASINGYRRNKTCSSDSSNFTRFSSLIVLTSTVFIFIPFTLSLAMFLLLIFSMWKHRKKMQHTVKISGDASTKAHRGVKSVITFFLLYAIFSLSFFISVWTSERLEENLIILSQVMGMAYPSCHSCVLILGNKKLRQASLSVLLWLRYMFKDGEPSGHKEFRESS
hT2R71, sequence (P59536 whole entry): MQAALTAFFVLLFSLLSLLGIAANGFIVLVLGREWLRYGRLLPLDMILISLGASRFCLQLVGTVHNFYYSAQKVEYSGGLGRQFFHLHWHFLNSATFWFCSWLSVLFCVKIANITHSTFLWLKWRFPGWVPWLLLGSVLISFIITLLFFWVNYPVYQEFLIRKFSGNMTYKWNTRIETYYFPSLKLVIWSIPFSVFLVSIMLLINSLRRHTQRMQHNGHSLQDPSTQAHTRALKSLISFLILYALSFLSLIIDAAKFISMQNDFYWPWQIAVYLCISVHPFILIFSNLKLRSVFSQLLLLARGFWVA
hT2R64, sequence (P59538 whole entry): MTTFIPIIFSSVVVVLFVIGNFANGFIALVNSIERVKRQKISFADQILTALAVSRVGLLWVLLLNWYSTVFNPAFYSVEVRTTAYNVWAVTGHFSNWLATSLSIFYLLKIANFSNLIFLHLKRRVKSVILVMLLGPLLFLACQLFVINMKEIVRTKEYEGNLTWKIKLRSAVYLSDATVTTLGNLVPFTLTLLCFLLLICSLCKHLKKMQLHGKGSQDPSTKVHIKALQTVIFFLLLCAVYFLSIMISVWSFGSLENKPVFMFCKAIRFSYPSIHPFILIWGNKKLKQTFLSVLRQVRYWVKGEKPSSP
hT2R5, sequence (Q9NYW4 whole entry): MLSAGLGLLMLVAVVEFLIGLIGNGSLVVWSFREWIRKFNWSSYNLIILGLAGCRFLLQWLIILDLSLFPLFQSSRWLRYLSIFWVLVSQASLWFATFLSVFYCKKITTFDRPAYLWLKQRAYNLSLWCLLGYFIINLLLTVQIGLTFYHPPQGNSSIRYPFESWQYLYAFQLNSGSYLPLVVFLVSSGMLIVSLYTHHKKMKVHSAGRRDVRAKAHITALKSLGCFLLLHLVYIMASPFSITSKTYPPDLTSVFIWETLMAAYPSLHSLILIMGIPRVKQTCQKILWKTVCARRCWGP
hT2R10, sequence (Q9NYW0 whole entry): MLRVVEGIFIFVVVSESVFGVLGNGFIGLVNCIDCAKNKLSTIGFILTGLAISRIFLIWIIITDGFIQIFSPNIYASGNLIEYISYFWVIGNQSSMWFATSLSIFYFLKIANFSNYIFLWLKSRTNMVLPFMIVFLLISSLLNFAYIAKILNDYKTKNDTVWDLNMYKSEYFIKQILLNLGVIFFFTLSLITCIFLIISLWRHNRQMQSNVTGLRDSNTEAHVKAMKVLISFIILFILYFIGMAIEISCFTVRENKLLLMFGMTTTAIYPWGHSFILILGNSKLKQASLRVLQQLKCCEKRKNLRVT
hT2R3, sequence (Q9NYW6 whole entry): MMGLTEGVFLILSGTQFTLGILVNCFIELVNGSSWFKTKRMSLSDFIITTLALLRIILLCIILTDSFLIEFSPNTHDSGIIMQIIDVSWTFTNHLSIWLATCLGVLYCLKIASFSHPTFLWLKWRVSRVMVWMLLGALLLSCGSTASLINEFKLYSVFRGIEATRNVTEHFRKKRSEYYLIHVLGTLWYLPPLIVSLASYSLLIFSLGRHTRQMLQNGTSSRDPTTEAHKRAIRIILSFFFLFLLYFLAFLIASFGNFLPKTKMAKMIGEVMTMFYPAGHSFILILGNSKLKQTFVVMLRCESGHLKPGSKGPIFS
hT2R51, sequence (P59533 whole entry): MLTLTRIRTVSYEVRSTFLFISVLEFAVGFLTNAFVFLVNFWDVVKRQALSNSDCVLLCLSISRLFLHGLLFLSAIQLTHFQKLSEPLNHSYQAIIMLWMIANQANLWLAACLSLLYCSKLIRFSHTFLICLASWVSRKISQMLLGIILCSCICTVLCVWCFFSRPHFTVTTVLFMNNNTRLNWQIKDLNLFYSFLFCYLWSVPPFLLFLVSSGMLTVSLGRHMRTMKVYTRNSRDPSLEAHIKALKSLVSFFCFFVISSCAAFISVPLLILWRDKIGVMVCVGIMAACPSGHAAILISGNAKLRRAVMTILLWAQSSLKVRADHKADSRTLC
hT2R7, sequence (Q9NYW3 whole entry): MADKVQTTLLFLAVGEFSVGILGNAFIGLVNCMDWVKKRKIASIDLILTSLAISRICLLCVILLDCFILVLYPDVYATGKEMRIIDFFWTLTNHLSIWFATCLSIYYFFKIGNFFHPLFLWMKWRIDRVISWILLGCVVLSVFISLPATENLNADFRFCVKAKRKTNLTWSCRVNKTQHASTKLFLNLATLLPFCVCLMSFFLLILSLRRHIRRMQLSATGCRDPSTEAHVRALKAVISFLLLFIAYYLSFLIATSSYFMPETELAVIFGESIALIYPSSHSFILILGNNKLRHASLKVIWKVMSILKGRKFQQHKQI

SMILES	inhibition at 25 µM [1, 19] [%]	inhibition at 25 µM [2, 20] [%]	inhibition at 25 µM [3, 21] [%]	screening result against bitter receptor 63 [4]	inhibition at 25 µM [6, 22] [%]	inhibition at 25 µM [7, 23] [%]	inhibition at 25 µM [8, 24] [%]	inhibition at 25 µM [9, 25] [%]	screening result against bitter receptor 44 [10]	screening result against bitter receptor 65 [11]	inhibition at 25 µM [12] [%]	screening result against bitter receptor 67 [13]	inhibition at 25 µM [14, 26] [%]	inhibition at 25 µM [16] [%]	screening result against bitter receptor 55 [18]	also measured
COc1ccccc1CN(Cc1ccc(C(=O)O)cc1)S(=O)(=O)c1ccc(O)cc1 [Example 5-42, 4-((4-hydroxy-N-(2-methoxybenzyl)phenylsulfonamido)methyl)-benzoic acid]	40 to 60	> 80	20 to 40	++ (40% to 60% inhibition = ++)	20 to 40	> 80	40 to 60	20 to 40	++ (40% to 60% inhibition = ++)	–	–	–	–	–	–	pIC50 [5]: 5.59
COc1ccc(CN(Cc2ccccc2)S(=O)(=O)c2ccc(CCC(=O)O)cc2)cc1 [Example 5-59, 3-(4-(N-benzyl-N-(4-methoxybenzyl)sulfamoyl)phenyl)propanoic acid]	–	40 to 60	20 to 40	+ (20% to 40% inhibition = +)	–	–	–	–	–	–	–	–	–	–	–	–
COc1cccc(CN(Cc2ccccc2)S(=O)(=O)c2ccc(C(=O)O)cc2)c1 [Example 5-74, 4-(N-benzyl-N-(3-methoxybenzyl)sulfamoyl)benzoic acid]	20 to 40	> 80	–	++++ (80% or greater inhibition = ++++)	20 to 40	> 80	60 to 80	20 to 40	+ (20% to 40% inhibition = +)	++ (40% to 60% inhibition = ++)	40 to 60	+ (20% to 40% inhibition = +)	40 to 60	20 to 40	+++ (60% to 80% inhibition = +++)	screening result against bitter receptor 54 [15]: ++ (40% to 60% inhibition = ++); inhibition at 25 µM [17]: 20 to 40%
N#Cc1cccc(CN(Cc2ccccc2)S(=O)(=O)c2ccc(C(=O)O)cc2)c1 [Example 5-75, 4-(N-benzyl-N-(3-cyanobenzyl)sulfamoyl)benzoic acid]	–	20 to 40	20 to 40	+ (20% to 40% inhibition = +)	–	–	–	–	–	–	20 to 40	–	–	20 to 40	–	–
O=C(O)c1ccc(S(=O)(=O)N(Cc2ccccc2)Cc2cccc(F)c2)cc1 [Example 5-79, 4-(N-benzyl-N-(3-fluorobenzyl)sulfamoyl)benzoic acid]	60 to 80	> 80	–	++++ (80% or greater inhibition = ++++)	20 to 40	> 80	60 to 80	40 to 60	++ (40% to 60% inhibition = ++)	++ (40% to 60% inhibition = ++)	> 80	+ (20% to 40% inhibition = +)	20 to 40	20 to 40	+++ (60% to 80% inhibition = +++)	screening result against bitter receptor 54 [15]: + (20% to 40% inhibition = +)
COc1ccc(CCN(Cc2ccccc2)S(=O)(=O)c2ccc(C(=O)O)cc2)cc1 [Example 5-81, 4-(N-benzyl-N-(4-methoxyphenethyl)sulfamoyl)benzoic acid]	40 to 60	60 to 80	–	+++ (60% to 80% inhibition = +++)	20 to 40	> 80	20 to 40	20 to 40	++ (40% to 60% inhibition = ++)	+ (20% to 40% inhibition = +)	20 to 40	+ (20% to 40% inhibition = +)	20 to 40	–	+++ (60% to 80% inhibition = +++)	inhibition at 25 µM [17]: 20 to 40%
COc1ccc(OC)c(/C=C2\SC(=S)N(CCC(=O)O)C2=O)c1 [Example 6-1, (Z)-3-(5-(2,5-dimethoxybenzylidene)-4-oxo-2-thioxothiazolidin-3-yl)propanoic acid]	–	–	–	–	–	–	–	–	–	–	–	–	–	–	–	inhibition at 25 µM ([1]; receptor activated to EC80 with agonist, read-out: inhibition of bitter receptor 64): 60 to 80%; inhibition of bitter receptor 65 [11, 27]: + (20% to 40% inhibition = +); inhibition at 25 µM ([2]; receptor activated to EC80 with agonist, read-out: inhibition of bitter receptor 61): 40 to 60%; inhibition at 25 µM ([3]; HEK293, read-out: inhibition of bitter receptor 75, compound at 25 μM, receptor activated to EC80 with agonist): 20 to 40%; inhibition of bitter receptor 63 [4, 27]: + (20% to 40% inhibition = +); pIC50 [5]: 5.56; inhibition at 25 µM ([6]; receptor activated to EC80 with agonist, read-out: inhibition of bitter receptor 16): 20 to 40%; inhibition at 25 µM ([7]; receptor activated to EC80 with agonist, read-out: inhibition of bitter receptor 14): > 80%; inhibition at 25 µM ([14]; HEK293, read-out: inhibition of bitter receptor 10, compound at 25 μM, receptor activated to EC80 with agonist): > 80%; inhibition at 25 µM ([8]; receptor activated to EC80 with agonist, read-out: inhibition of bitter receptor 71): 20 to 40%; inhibition at 25 µM ([9]; receptor activated to EC80 with agonist, read-out: inhibition of bitter receptor 3): 20 to 40%; inhibition of bitter receptor 55 [18, 27]: + (20% to 40% inhibition = +); inhibition of bitter receptor 44 [10, 27]: ++ (40% to 60% inhibition = ++)
